# Measurements as given in patent US20160106102A1, “KNOWN AND NEW HETEROCYCLIC COMPOUNDS AS PEST CONTROL AGENTS” (BAYER CROPSCIENCE AKTIENGESELLSCHAFT, priority 2013, published 2016).
# Test system: Myzus persicae
# Experiment: Myzus persicae - spray test
# Format: in vivo
# Conditions: Myzus persicae, foliar, 144 h; application rate of 500 g/ha; after 6 days; sprayed Chinese cabbage leaf discs infested by all stages; 100% = all aphids killed; read-out: efficacy in %
# Protocol: Myzus persicae—spray test Solvent: 78 parts by weight of acetone • • 1.5 parts by weight of dimethylformamide Emulsifier: 0.5 part by weight of alkylaryl polyglycol ether To produce an appropriate active ingredient formulation, 1 part by weight of active ingredient is mixed with the specified amounts of solvent and emulsifier, and the concentrate is diluted to the desired concentration with emulsifier-containing water. Discs of Chinese cabbage leaves (Brassica pekinensis) infested by all stages of the green peach aphid (Myzus persicae) are sprayed with an active ingredient formulation of the desired concentration. After 6 days, the efficacy in % is determined. 100% means that all the aphids have been killed; 0% means that no aphids have been killed.
row,Compound,pest or weed control at 500 g/ha
1,"O=C(Nc1ncn(Cc2ccccc2Cl)n1)c1cccnc1 [Compound I-2-7, N-[1-(2-Chlorobenzyl)-1H-1,2,4-triazol-3-yl]nicotinamide]",100%
2,"CCSCn1nc(NC(=O)c2cccnc2)cc1C [Compound I-1-242, N-{1-[(Ethylsulphanyl)methyl]-5-methyl-1H-pyrazol-3-yl}nicotinamide]",100%

# Same assay, conditions: application rate of 500 g/ha; after 6 days; sprayed Chinese cabbage leaf discs infested by all stages; 100% = all aphids killed
row,Compound,efficacy in %
1,CCC(=O)n1nc(NC(=O)c2cccnc2)cc1C [Compound I-1-129],90%
2,C#CCn1nc(NC(=O)c2cccnc2)cc1C1CC1 [Compound I-1-43],90%
3,Cc1cc(NC(=O)c2cccnc2)nn1Cc1ncccc1C#N [Compound I-1-20],90%
4,Cc1ccnc(Cn2nc(NC(=O)c3cccnc3)cc2C)n1 [Compound I-1-31],90%
5,CC[S+]([O-])Cn1nc(NC(=O)c2cccnc2)cc1C (stereo not drawn) [Compound I-1-245],100%
6,Cc1cc(NC(=O)c2cccnc2)nn1Cc1cn2cc(C(F)(F)F)ccc2n1 [Compound I-1-155],90%
7,Cc1cc(NC(=O)c2cccnc2)nn1Cc1ccc(Cl)s1 [Compound I-1-297],90%
8,Cc1cc(NC(=O)c2cccnc2)nn1Cn1nccc1C(F)(F)F [Compound I-1-227],90%
9,Cc1cc(NC(=O)c2cccnc2)nn1-c1ccc(F)cc1 [Compound I-1-203],90%
10,Cc1cc(NC(=O)c2cccnc2)nn1CCS(C)(=O)=O [Compound I-1-182],100%
11,O=C(Nc1ccn(Cc2ccccn2)n1)c1cccnc1 [Compound I-1-26],90%
12,Cc1cc(NC(=O)c2cccnc2)nn1CS(C)(=O)=O [Compound I-1-244],90%
13,O=C(Nc1ccn(Cc2ccc(Cl)nc2)n1)c1cccnc1 [Compound I-1-27],90%
14,Cc1cc(NC(=O)c2cccnc2)nn1C(=O)NCCOC(F)(F)F [Compound I-1-172],90%

# Test system: Myzus persicae
# Experiment: Myzus persicae - sachet test
# Format: in vivo
# Conditions: Myzus persicae; application rate of 6 ppm in nutrient medium; 100% = all animals killed; read-out: efficacy (kill in %)
# In short: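 Green peach aphids feed through a sealed sachet on nutrient medium containing the water-diluted formulation (solvents: 2% N-methylpyrrolidone, 2% diacetone alcohol). Percent mortality read after the chosen time; 100% means all animals killed.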
row,Compound,pest or weed control at 6 ppm
1,"CCSCn1nc(NC(=O)c2cccnc2)cc1C [Compound I-1-242, N-{1-[(Ethylsulphanyl)methyl]-5-methyl-1H-pyrazol-3-yl}nicotinamide]",100%

# Same assay, conditions: Myzus persicae; application rate of 30 ppm in nutrient medium; 100% = all animals killed; read-out: efficacy (kill in %)
row,Compound,pest or weed control at 30 ppm
1,"CCSCn1nc(NC(=O)c2cccnc2)cc1C [Compound I-1-242, N-{1-[(Ethylsulphanyl)methyl]-5-methyl-1H-pyrazol-3-yl}nicotinamide]",100%

# Same assay, conditions: application rate of 6 ppm in nutrient medium; 100% = all animals killed
row,Compound,efficacy (kill in %)
1,CCC(=O)n1nc(NC(=O)c2cccnc2)cc1C [Compound I-1-129],100%
2,C#CCn1nc(NC(=O)c2cccnc2)cc1C1CC1 [Compound I-1-43],100%
3,Cc1cc(NC(=O)c2cccnc2)nn1Cc1ncccc1C#N [Compound I-1-20],100%
4,Cc1ccnc(Cn2nc(NC(=O)c3cccnc3)cc2C)n1 [Compound I-1-31],100%
5,CC[S+]([O-])Cn1nc(NC(=O)c2cccnc2)cc1C (stereo not drawn) [Compound I-1-245],100%
6,Cc1cc(NC(=O)c2cccnc2)nn1Cc1cn2cc(C(F)(F)F)ccc2n1 [Compound I-1-155],100%
7,Cc1cc(NC(=O)c2cccnc2)nn1Cn1nccc1C(F)(F)F [Compound I-1-227],100%
8,Cc1cc(NC(=O)c2cccnc2)nn1-c1ccc(F)cc1 [Compound I-1-203],80%
9,Cc1cc(NC(=O)c2cccnc2)nn1CCS(C)(=O)=O [Compound I-1-182],100%
10,O=C(Nc1ccn(Cc2ccccn2)n1)c1cccnc1 [Compound I-1-26],100%
11,Cc1cc(NC(=O)c2cccnc2)nn1CS(C)(=O)=O [Compound I-1-244],100%
12,O=C(Nc1ccn(Cc2ccc(Cl)nc2)n1)c1cccnc1 [Compound I-1-27],100%
13,Cc1cc(NC(=O)c2cccnc2)nn1C(=O)NCCOC(F)(F)F [Compound I-1-172],100%

# Same assay, conditions: application rate of 30 ppm in nutrient medium; 100% = all animals killed
row,Compound,efficacy (kill in %)
1,CCC(=O)n1nc(NC(=O)c2cccnc2)cc1C [Compound I-1-129],100%
2,C#CCn1nc(NC(=O)c2cccnc2)cc1C1CC1 [Compound I-1-43],100%
3,Cc1cc(NC(=O)c2cccnc2)nn1Cc1ncccc1C#N [Compound I-1-20],100%
4,Cc1ccnc(Cn2nc(NC(=O)c3cccnc3)cc2C)n1 [Compound I-1-31],100%
5,CC[S+]([O-])Cn1nc(NC(=O)c2cccnc2)cc1C (stereo not drawn) [Compound I-1-245],100%
6,Cc1cc(NC(=O)c2cccnc2)nn1Cc1cn2cc(C(F)(F)F)ccc2n1 [Compound I-1-155],100%
7,Cc1cc(NC(=O)c2cccnc2)nn1Cc1ccc(Cl)s1 [Compound I-1-297],100%
8,Cc1cc(NC(=O)c2cccnc2)nn1Cn1nccc1C(F)(F)F [Compound I-1-227],100%
9,Cc1cc(NC(=O)c2cccnc2)nn1-c1ccc(F)cc1 [Compound I-1-203],100%
10,Cc1cc(NC(=O)c2cccnc2)nn1CCS(C)(=O)=O [Compound I-1-182],100%
11,O=C(Nc1ccn(Cc2ccccn2)n1)c1cccnc1 [Compound I-1-26],100%
12,Cc1cc(NC(=O)c2cccnc2)nn1CS(C)(=O)=O [Compound I-1-244],100%
13,O=C(Nc1ccn(Cc2ccc(Cl)nc2)n1)c1cccnc1 [Compound I-1-27],100%
14,Cc1cc(NC(=O)c2cccnc2)nn1C(=O)NCCOC(F)(F)F [Compound I-1-172],100%

# Test system: not listed separately
# Experiment: log P determination by LC-MS in the acidic range
# Format: physicochemical
# Conditions: HPLC on a reversed-phase column (C 18), pH 2.7, values given in the synthesis examples and NMR lists; read-out: HPLC-MS: log P
# Text: The LC-MS determination in the acidic range is effected at pH 2.7 using 0.1% aqueous formic acid and acetonitrile (contains 0.1% formic acid) as eluents, linear gradient from 10% acetonitrile to 95% acetonitrile. Alternatively, the determination is effected in the acidic range at pH 2.3 using 0.1% aqueous phosphoric acid and acetonitrile as eluents; linear gradient from 10% acetonitrile to 95% acetonitrile.
row,Compound,chromatographic logP
1,"O=C(Nc1ncn(Cc2ccccc2Cl)n1)c1cccnc1 [Compound I-2-7, N-[1-(2-Chlorobenzyl)-1H-1,2,4-triazol-3-yl]nicotinamide]",1.22

# Same assay, conditions: LC-MS in the acidic range
row,Compound,log P (acid)
1,CCC(=O)n1nc(NC(=O)c2cccnc2)cc1C [Compound I-1-129],1.56
2,C#CCn1nc(NC(=O)c2cccnc2)cc1C1CC1 [Compound I-1-43],1.41
3,Cc1cc(NC(=O)c2cccnc2)nn1Cc1ncccc1C#N [Compound I-1-20],1.08
4,Cc1ccnc(Cn2nc(NC(=O)c3cccnc3)cc2C)n1 [Compound I-1-31],0.96
5,CC[S+]([O-])Cn1nc(NC(=O)c2cccnc2)cc1C (stereo not drawn) [Compound I-1-245],0.45
6,Cc1cc(NC(=O)c2cccnc2)nn1Cc1cn2cc(C(F)(F)F)ccc2n1 [Compound I-1-155],1.54
7,Cc1cc(NC(=O)c2cccnc2)nn1Cc1ccc(Cl)s1 [Compound I-1-297],2.07
8,Cc1cc(NC(=O)c2cccnc2)nn1Cn1nccc1C(F)(F)F [Compound I-1-227],1.72
9,Cc1cc(NC(=O)c2cccnc2)nn1-c1ccc(F)cc1 [Compound I-1-203],1.79
10,Cc1cc(NC(=O)c2cccnc2)nn1CCS(C)(=O)=O [Compound I-1-182],0.49
11,O=C(Nc1ccn(Cc2ccccn2)n1)c1cccnc1 [Compound I-1-26],0.57
12,Cc1cc(NC(=O)c2cccnc2)nn1CS(C)(=O)=O [Compound I-1-244],0.59
13,O=C(Nc1ccn(Cc2ccc(Cl)nc2)n1)c1cccnc1 [Compound I-1-27],1.22
14,Cc1cc(NC(=O)c2cccnc2)nn1C(=O)NCCOC(F)(F)F [Compound I-1-172],1.91

# Same assay, conditions: pH 2.7, LC-MS in the acidic range; read-out: log P (acid)
row,Compound,chromatographic logP
1,"CCSCn1nc(NC(=O)c2cccnc2)cc1C [Compound I-1-242, N-{1-[(Ethylsulphanyl)methyl]-5-methyl-1H-pyrazol-3-yl}nicotinamide]",1.49

# Same assay, conditions: pH 2.7, values given in the synthesis examples and NMR lists; read-out: HPLC-MS: log P
row,Compound,chromatographic logP
1,"CCSCn1nc(NC(=O)c2cccnc2)cc1C [Compound I-1-242, N-{1-[(Ethylsulphanyl)methyl]-5-methyl-1H-pyrazol-3-yl}nicotinamide]",1.49

# Same assay, conditions: reversed-phase HPLC column (C18), pH 2.7, Table 2, compounds of the formula (I-2); acidic range pH 2.7 or pH 2.3; read-out: log P (acid)
row,Compound,chromatographic logP
1,"O=C(Nc1ncn(Cc2ccccc2Cl)n1)c1cccnc1 [Compound I-2-7, N-[1-(2-Chlorobenzyl)-1H-1,2,4-triazol-3-yl]nicotinamide]",1.22
